What all share (type): biochemical, influenza A/Chungbuk/4448/2008(H1N1) virus
The target of assay [1] is neuraminidase (NA) of recombinant virus Chungbuk-Y275H-N295S-I117V (Influenza A virus (A/Chungbuk/4448/2008(H1N1)), UniProt E3JK96, I117V/N295S/Y275H).
Assay [2] has as its target neuraminidase (NA) of recombinant virus Chungbuk-Y275H-N295S-I223V (Influenza A virus (A/Chungbuk/4448/2008(H1N1)), UniProt E3JK96, I223V/N295S/Y275H).
Assay [3] addresses neuraminidase (NA) of recombinant virus Chungbuk-Y275H-N295S-I117M (Influenza A virus (A/Chungbuk/4448/2008(H1N1)), UniProt E3JK96, I117M/N295S/Y275H).
Assay [4] addresses neuraminidase (NA) of recombinant virus Chungbuk-Y275-N295S-I223V (Influenza A virus, UniProt E3JK96, I223V/N295S).
Assay [5] deals with NA of all the single, double, and triple mutants containing the E119V mutation.
Assay [6] addresses neuraminidase (NA) of recombinant virus Chungbuk-Y275H-E119V (Influenza A virus, UniProt E3JK96, E119V/Y275H).
In assay [7] the target is neuraminidase (NA) of recombinant virus Chungbuk-Y275-E119V (Influenza A virus, UniProt E3JK96, E119V).
The target of assay [8] is neuraminidase (NA) of recombinant virus Chungbuk-Y275-N295S-I117M (Influenza A virus, UniProt E3JK96, I117M/N295S).
Assay [9] concerns NA of all the single and double mutants containing tyrosine (Y) at NA residue 275 except Chungbuk-Y275-E119V.

Turning to `CC(=O)N[C@H]1[C@H]([C@H](O)[C@H](O)CO)OC(C(=O)O)=C[C@@H]1N=C(N)N` [Zanamivir], the NAI resistance phenotype entry is “susceptible” in assay [1]; “susceptible” in assay [2]; “susceptible” in assay [3]; “susceptible” in [4]; “resistance” in assay [5]; “important levels of resistance” in assay [6]. Further, the NAI resistance phenotype result in assay [7] is recorded as “important levels of resistance”; in [8] it was “susceptible”; in assay [9] it was “susceptibility”.

These data come from PMC3922101 (Osong Public Health and Research Perspectives, 2013).
